Source: PMC11855827, “High-Throughput Screening of Five Compound Libraries for Anthelmintic Activity and Toxicity Leads to the Discovery of Two Flavonoid Compounds” (International Journal of Molecular Sciences, 2025)
“And” between values parts separate entries of the source, which are not always exact repeats. Equal values may be shown once. Read-outs that look alike come from different tables or passages of the source.

System: C. elegans
[1] = Table S2, C. elegans SS assay, 110 μM, 0 h, averages of 4 data points
[2] = Table S2, C. elegans SS assay, 110 μM, 24 h, averages of 4 data points

| Compound | Percentage of motility inhibition 0 h [1] | Percentage of motility inhibition 24 h [2] | Percentage of motility inhibition 0 h (110 µM) | Percentage of motility inhibition 24 h (110 µM) |
| --- | --- | --- | --- | --- |
| CN1C[C@@H]2C[C@H](C1)c1cccc(=O)n1C2 [N‐Methylcytisine] | 0% | 0% |  |  |
| C=C(CC[C@@H](C)[C@H]1CC[C@@]2(C)[C@@H]3CC[C@H]4C(C)(C)[C@@H](OC(=O)/C=C/c5ccc(O)c(OC)c5)CC[C@@]45C[C@@]35CC[C@]12C)C(C)C [24-Methylenecycloartanyl ferulate] |  |  | 0% | 11% |
| NCC(=O)O [Glycine] |  |  | 32% | 13% |
| CCCCC1OC(=O)c2ccccc21 (stereo not drawn) [Butylphthalide] | 0% | 18% |  |  |
| C[N+](C)(C)[C@@H](Cc1c[nH]c(=S)[nH]1)C(=O)[O-] [Ergothioneine] | 16% | 0% |  |  |
| Miquelianin | 1% | 0% |  |  |
| COc1cc(-c2oc3cc(O)cc(O)c3c(=O)c2O[C@@H]2O[C@H](CO)[C@@H](O)[C@H](O)[C@H]2O[C@@H]2O[C@@H](C)[C@H](O)[C@@H](O)[C@H]2O)ccc1O [Isorhamnetin‐3‐O‐neohespeidoside] | 45% | 5% |  |  |
| CN[C@@H](C)[C@H]1[C@H](O)C[C@@]2(C)[C@@H]3CC[C@H]4C(C)(C)[C@@H](NC)CC[C@@]45C[C@@]35CC[C@]12C [Cyclovirobuxine D] | 20% | 0% |  |  |
| COc1cc2c(cc1O)C[C@H]1c3cc(O)c(OC)cc3CC[N+]1(C)C2.[Cl-] (stereo partly drawn) [Phellodendrine (chloride)] | 25% | 7% |  |  |
| Oc1ccc([C@H]2Oc3cc(O)cc(O)c3C[C@H]2O)cc1 [(‐)‐Epiafzelechin] | 13% | 42% |  |  |
| (±)‐10‐Hydroxycamptothecin | 0% | 0% |  |  |
| CC(C)(O)[C@@H]1CC[C@](C)([C@H]2[C@@H](O)C[C@@]3(C)[C@@H]4C[C@H](O)[C@H]5C(C)(C)[C@@H](O[C@@H]6OC[C@@H](O)[C@H](O)[C@H]6O[C@@H]6O[C@H](CO)[C@@H](O)[C@H](O)[C@H]6O)CC[C@@]56C[C@@]46CC[C@]23C)O1 [Astragaloside III] | 0% | 35% |  |  |
| CC1(C)CC[C@]2(C(=O)O[C@@H]3O[C@H](CO)[C@@H](O)[C@H](O)[C@H]3O)CC[C@]3(C)C(=CC[C@@H]4[C@@]5(C)C[C@@H](O)[C@H](O[C@@H]6O[C@H](CO)[C@@H](O)[C@H](O)[C@H]6O)[C@@](C)(CO)[C@@H]5CC[C@]43C)[C@@H]2C1 [Lucyoside B] | 9% | 4% |  |  |
| CCn1cc(C(=O)O)c(=O)c2cc(F)c(N3CCN(C)CC3)cc21.CS(=O)(=O)O [Pefloxacin (mesylate)] | 9% | 8% |  |  |
| COc1cc(O)cc(O)c1C(=O)/C=C/c1ccccc1 [Cardamonin] | 0% | 13% |  |  |
| OCc1ccc(O)cn1 [2‐Hydroxymethyl‐5‐hydroxypyridine] | 0% | 0% |  |  |
| C[C@@H]1CC[C@@]2(OC1)O[C@H]1C[C@H]3[C@@H]4CC=C5C[C@@H](O[C@@H]6O[C@H](CO)[C@@H](O[C@@H]7O[C@H](CO)[C@@H](O)[C@H](O[C@@H]8O[C@H](CO)[C@@H](O)[C@H](O)[C@H]8O)[C@H]7O)[C@H](O)[C@H]6O[C@@H]6O[C@@H](C)[C@H](O)[C@@H](O)[C@H]6O)CC[C@]5(C)[C@H]4CC[C@]3(C)[C@H]1[C@@H]2C [Zingiberen Newsaponin] | 0% | 60% |  |  |
| CC(CC(=O)CC(C)(O)C1CC(=O)C2(C)C3=C(C(=O)CC12C)C1(C)CCC(=O)C(C)(C)C1CC3O)C(=O)O (stereo not drawn) [Ganoderic acid N] | 0% | 0% |  |  |
| CN1C[C@H](O)C[C@H]1C(=O)O [4‐Hydroxyhygric acid] | 21% | 0% |  |  |
| Cl.NCCCC[C@H](N)C(=O)O [L-Lysine hydrochloride] | 19% | 0% |  |  |
| COc1cccc(OC)c1C(=O)N[C@@H]1C(=O)N2[C@@H]1SC(C)(C)[C@@H]2C(=O)[O-].[Na+] [Methicillin (sodium salt)] | 16% | 1% |  |  |
| C=CCCN1C[C@@H]2C[C@H](C1)c1cccc(=O)n1C2 [Rhombifoline] | 0% | 0% |  |  |

| Compound | Percentage of motility inhibition 0 h [1] | Percentage of motility inhibition 24 h [2] | Percentage of motility inhibition 0 h (110 µM) | Percentage of motility inhibition 24 h (110 µM) |
| --- | --- | --- | --- | --- |
| CC1(C)CC[C@]2(C(=O)O[C@@H]3O[C@H](CO)[C@@H](O)[C@H](O)[C@H]3O)[C@H](O)C[C@]3(C)C(=CC[C@@H]4[C@@]5(C)CC[C@H](O)C(C)(C)[C@@H]5CC[C@]43C)[C@@H]2C1 [Echinocystic acid 28-O-β-D-glucoside] | 36% | 41% |  |  |
| CC1(C)C(=O)[C@]2(C)CCC1C2 (single isomer, unassigned; (-)) [(-)-Fenchone] | 26% | 22% |  |  |
| CC(C)[C@H](N)C(=O)OCC(CO)OCn1cnc2c(=O)nc(N)[nH]c21.Cl (stereo partly drawn) [Valganciclovir (hydrochloride)] | 9% | 0% |  |  |
| C[C@H](CC[C@@H](O[C@@H]1O[C@H](CO[C@@H]2O[C@H](CO)[C@@H](O)[C@H](O)[C@H]2O)[C@@H](O)[C@H](O)[C@H]1O[C@@H]1O[C@H](CO)[C@@H](O)[C@H](O)[C@H]1O)C(C)(C)O)[C@H]1CC[C@@]2(C)[C@@H]3CC=C4[C@@H](CC[C@H](O[C@@H]5O[C@H](CO)[C@@H](O[C@@H]6O[C@H](CO)[C@@H](O)[C@H](O)[C@H]6O)[C@H](O)[C@H]5O)C4(C)C)[C@]3(C)[C@H](O)C[C@]12C [Isomogroside V] | 28% | 21% |  |  |
| C[C@@H]1O[C@@H](O[C@H]2[C@H](O[C@H]3CC[C@@]4(C)[C@@H](CC[C@]5(C)[C@@H]4CC=C4[C@@H]6CC(C)(C)CC[C@]6(C(=O)O[C@@H]6O[C@H](CO[C@@H]7O[C@H](CO)[C@@H](O)[C@H](O)[C@H]7O)[C@@H](O)[C@H](O)[C@H]6O)CC[C@]45C)[C@]3(C)CO)OC[C@H](O)[C@@H]2O)[C@H](O)[C@H](O[C@@H]2O[C@H](CO)[C@@H](O[C@@H]3O[C@H](CO)[C@@H](O)[C@H](O)[C@H]3O)[C@H](O)[C@H]2O)[C@H]1O [Macranthoidin B] | 6% | 0% |  |  |
| (+)-Catechin hydrate | 12% and 8% |  |  |  |
| C=C[C@H]1C[N@@]2CC[C@H]1C[C@H]2[C@H](O)c1ccnc2ccc(OC)cc12 [Quinine] |  | 0% and 8% and 1% |  |  |
| O=C(O)c1cnc(O)cn1 [5‐hydroxypyr azine‐2‐carboxylic acid] | 28% | 1% |  |  |
| COc1ccc2c3ccnc4ccc(=O)n(c2c1)c43 [9‐Methoxycanthin‐6‐one] | 0% | 22% |  |  |
| CC(CC(=O)CC(C)[C@H]1CC(=O)C2(C)C3=C(C(=O)C(=O)C12C)C1(C)CCC(=O)C(C)(C)[C@@H]1CC3=O)C(=O)O (stereo partly drawn) [Ganosporeric acid A] | 36% | 9% |  |  |
| CCOc1ccc2ccccc2c1C(=O)N[C@@H]1C(=O)N2[C@@H]1SC(C)(C)[C@@H]2C(=O)[O-].O.[Na+] [Nafcillin (sodium monohydrate)] | 12% | 2% |  |  |
| CC(=O)O[C@H]([C@@H](O)C[C@@H](C)C1=C2C[C@H](O)[C@H]3[C@@]4(C)CCC(=O)C(C)(C)[C@@H]4CC[C@]3(C)[C@@]2(C)CC1)C(C)(C)O [Alisol A 24-acetate] | 3% | 23% |  |  |
| COc1cc2c(cc1OC)-c1cc3ccc(OC)c(OC)c3c[n+]1CC2.[OH-] [Palmatine (hydroxide)] | 1% | 0% |  |  |
| CC1=C[C@@H]2C(=O)[C@]3(C=C(C)[C@H](O)[C@@]3(O)[C@@H]1O)[C@H](C)C[C@@H]1[C@H]2C1(C)C [20-Deoxyingenol] | 0% | 21% |  |  |
| Ginkgolide J | 0% | 25% |  |  |
| COC(=O)N[C@H](C(=O)N[C@@H](Cc1ccccc1)[C@@H](O)CN(Cc1ccc(-c2ccccn2)cc1)NC(=O)[C@@H](NC(=O)OC)C(C)(C)C)C(C)(C)C.O=S(=O)(O)O [Atazanavir (sulfate)] | 3% | 4% |  |  |
| COc1ccc2c(c1OC)C(OC)N(C)c1c-2ccc2cc3c(cc12)OCO3 (stereo not drawn) [Angoline] | 0% | 0% |  |  |
| C[C@]1(C(=O)O)CC[C@]2(C)CC[C@]3(C)C(=CC(=O)[C@@H]4[C@@]5(C)CC[C@H](O[C@@H]6O[C@H](C(=O)O)[C@@H](O)[C@H](O)[C@H]6O[C@@H]6O[C@H](C(=O)O)[C@@H](O)[C@H](O)[C@H]6O)[C@](C)(CO)[C@@H]5CC[C@]43C)[C@@H]2C1 [Licoricesaponin G2] | 2% | 10% |  |  |
| CC(C)(O)[C@@H]1CC[C@](C)([C@H]2[C@@H](O)C[C@@]3(C)[C@@H]4C[C@H](O)[C@H]5C(C)(C)[C@@H](O)CC[C@@]56C[C@@]46CC[C@]23C)O1 [Cycloastragenol] | 8% | 31% |  |  |
| Clc1ccc(CCC(Cn2ccnc2)Sc2c(Cl)cccc2Cl)cc1.O=[N+]([O-])O (stereo not drawn) [Butoconazole (nitrate)] | 45% | 46% |  |  |
| Evodiamine | 0% | 23% |  |  |
